Legend:
[1] = biological target: T1, purified recombinant human PI3K enzyme δ (Homo sapiens, UniProt O00329); assay: Inhibition of PI3-Kinase enzymatic activity (HTRF enzyme assay), δ; type: biochemical; conditions: 1 μM compound; PI3K δ 50 ng/well; PIP2 10 μM; ATP 200 μM; read-out: Percentage inhibition of PI3K activity, δ
T1 construct: purchased Invitrogen, USA
Procedure, shortened: (§1)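 HTRF assay with compound at 1 μM (1.0% DMSO), recombinant human PI3Kδ (50 ng/well) or γ (100 ng/well) and PIP2 (10 μM), preincubated 15 min at room temperature. ATP (δ 200 μM, γ 50 μM) was then added for 30 min at room temperature. Percent inhibition was derived from the 665/615 nm signal ratio.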

[2] = biological target: T2, purified recombinant human PI3K enzyme γ (Homo sapiens, UniProt P48736); assay: Inhibition of PI3-Kinase enzymatic activity (HTRF enzyme assay), γ; type: biochemical; conditions: 1 μM compound; PI3K γ 100 ng/well; PIP2 10 μM; ATP 50 μM; read-out: Percentage inhibition of PI3K activity, γ
T2 construct: purchased Invitrogen, USA
T2 sequence (P48736 whole entry): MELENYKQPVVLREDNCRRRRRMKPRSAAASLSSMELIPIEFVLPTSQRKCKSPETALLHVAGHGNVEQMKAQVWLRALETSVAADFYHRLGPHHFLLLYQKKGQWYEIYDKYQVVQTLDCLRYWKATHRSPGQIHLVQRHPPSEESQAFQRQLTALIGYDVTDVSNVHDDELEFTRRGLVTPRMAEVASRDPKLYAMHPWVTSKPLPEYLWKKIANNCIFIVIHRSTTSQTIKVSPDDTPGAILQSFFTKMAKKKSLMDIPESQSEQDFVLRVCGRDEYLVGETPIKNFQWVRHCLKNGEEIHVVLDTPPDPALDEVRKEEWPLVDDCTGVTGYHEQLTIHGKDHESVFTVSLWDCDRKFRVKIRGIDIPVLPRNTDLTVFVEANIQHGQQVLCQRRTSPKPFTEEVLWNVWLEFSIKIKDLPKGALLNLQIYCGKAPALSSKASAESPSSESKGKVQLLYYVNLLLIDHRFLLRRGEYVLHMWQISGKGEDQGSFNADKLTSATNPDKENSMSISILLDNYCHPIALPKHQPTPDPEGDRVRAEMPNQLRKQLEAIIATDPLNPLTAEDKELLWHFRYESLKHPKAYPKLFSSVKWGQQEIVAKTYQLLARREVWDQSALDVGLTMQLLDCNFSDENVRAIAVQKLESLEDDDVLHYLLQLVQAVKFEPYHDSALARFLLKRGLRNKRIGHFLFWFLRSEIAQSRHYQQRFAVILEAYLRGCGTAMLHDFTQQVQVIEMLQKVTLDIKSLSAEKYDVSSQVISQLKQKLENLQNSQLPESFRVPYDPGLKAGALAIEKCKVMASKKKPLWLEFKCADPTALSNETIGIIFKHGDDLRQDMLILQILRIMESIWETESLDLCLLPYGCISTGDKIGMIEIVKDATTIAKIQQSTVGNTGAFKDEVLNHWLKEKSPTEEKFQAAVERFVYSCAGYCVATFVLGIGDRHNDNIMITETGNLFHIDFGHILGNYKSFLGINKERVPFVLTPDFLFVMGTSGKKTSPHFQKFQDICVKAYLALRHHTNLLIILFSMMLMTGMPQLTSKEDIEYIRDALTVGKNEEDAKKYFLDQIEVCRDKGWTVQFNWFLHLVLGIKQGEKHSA
Procedure, shortened: as §1

T1 sequence (O00329 whole entry): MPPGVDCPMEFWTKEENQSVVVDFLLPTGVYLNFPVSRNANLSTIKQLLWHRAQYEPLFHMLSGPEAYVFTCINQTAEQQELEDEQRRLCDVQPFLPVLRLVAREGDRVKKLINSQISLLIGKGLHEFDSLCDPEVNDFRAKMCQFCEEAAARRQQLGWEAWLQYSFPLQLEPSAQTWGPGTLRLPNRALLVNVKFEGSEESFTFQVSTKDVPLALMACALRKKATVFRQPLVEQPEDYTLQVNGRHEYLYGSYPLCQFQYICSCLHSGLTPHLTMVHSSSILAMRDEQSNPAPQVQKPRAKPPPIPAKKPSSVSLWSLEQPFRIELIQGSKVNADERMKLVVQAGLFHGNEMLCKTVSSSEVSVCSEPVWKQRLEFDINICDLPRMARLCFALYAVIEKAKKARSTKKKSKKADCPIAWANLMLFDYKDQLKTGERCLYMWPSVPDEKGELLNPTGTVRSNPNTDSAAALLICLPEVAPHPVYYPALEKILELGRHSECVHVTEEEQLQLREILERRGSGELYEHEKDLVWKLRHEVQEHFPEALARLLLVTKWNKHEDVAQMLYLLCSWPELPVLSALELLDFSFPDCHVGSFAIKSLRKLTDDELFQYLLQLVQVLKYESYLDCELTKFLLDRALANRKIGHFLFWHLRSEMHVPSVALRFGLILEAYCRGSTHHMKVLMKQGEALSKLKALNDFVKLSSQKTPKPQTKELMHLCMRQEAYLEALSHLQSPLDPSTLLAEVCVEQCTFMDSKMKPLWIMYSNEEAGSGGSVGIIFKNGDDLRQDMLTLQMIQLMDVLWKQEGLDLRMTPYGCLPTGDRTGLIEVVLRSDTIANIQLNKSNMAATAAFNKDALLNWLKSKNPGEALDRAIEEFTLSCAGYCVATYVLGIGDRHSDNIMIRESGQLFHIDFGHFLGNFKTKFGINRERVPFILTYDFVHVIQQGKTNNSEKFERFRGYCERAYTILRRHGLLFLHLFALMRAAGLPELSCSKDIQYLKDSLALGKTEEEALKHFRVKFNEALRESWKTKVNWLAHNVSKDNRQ
T1 sequence (P27986 whole entry partner): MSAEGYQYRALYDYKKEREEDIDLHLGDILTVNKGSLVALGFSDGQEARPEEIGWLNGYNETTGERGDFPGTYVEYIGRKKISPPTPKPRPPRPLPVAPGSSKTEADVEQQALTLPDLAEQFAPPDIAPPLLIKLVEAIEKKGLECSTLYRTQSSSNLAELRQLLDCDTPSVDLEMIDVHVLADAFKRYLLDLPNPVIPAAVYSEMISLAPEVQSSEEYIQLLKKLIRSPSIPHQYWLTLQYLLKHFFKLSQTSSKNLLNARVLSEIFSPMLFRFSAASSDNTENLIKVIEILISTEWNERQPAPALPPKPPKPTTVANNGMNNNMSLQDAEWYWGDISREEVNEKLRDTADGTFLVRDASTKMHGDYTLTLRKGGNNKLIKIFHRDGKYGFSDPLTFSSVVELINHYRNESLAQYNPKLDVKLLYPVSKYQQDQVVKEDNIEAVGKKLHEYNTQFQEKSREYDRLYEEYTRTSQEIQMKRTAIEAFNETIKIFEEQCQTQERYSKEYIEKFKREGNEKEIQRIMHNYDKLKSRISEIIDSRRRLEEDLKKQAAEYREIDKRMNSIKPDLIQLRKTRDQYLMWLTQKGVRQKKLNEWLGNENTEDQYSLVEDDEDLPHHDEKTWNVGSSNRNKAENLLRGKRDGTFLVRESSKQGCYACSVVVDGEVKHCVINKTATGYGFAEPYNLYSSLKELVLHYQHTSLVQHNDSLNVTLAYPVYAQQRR

Row | inhibition at 1 µM [1] [%] | inhibition at 1 µM [2] [%] | SMILES
1 | 80 to 100 | 60 to 80 | Cc1ccc(C)n1-n1c(Cn2nc(-c3ccc(O)c4c3CC(C)(C)O4)c3c(N)ncnc32)nc2cccc(-c3cnn(C)c3)c2c1=O [compound 62, 2-{[4-amino-3-(7-hydroxy-2,2-dimethyl-2,3-dihydro-1-benzofuran-4-yl)-1H-pyrazolo[3,4-d]pyrimidin-1-yl]methyl}-3-(2,5-dimethyl-1H-pyrrol-1-yl)-5-(1-methyl-1H-pyrazol-4-yl)quinazolin-4(3H)-one]
2 | 80 to 100 | < 20 | Cc1ccc(C)n1-n1c(Cn2nc(-c3ccc(O)c4c3CC(C)(C)O4)c3c(N)ncnc32)nc2cccc(C#Cc3cncn3C)c2c1=O [compound 67, 2-{[4-amino-3-(7-hydroxy-2,2-dimethyl-2,3-dihydro-1-benzofuran-4-yl)-1H-pyrazolo[3,4-d]pyrimidin-1-yl]methyl}-3-(2,5-dimethyl-1H-pyrrol-1-yl)-5-[(1-methyl-1H-imidazol-5-yl)ethynyl]quinazolin-4(3H)-one]
3 | 80 to 100 | 80 to 100 | CC1(C)Cc2c(-c3nn(Cc4nc5cccc(-c6ccsc6)c5c(=O)n4C4(c5ccccc5)CC4)c4ncnc(N)c34)ccc(O)c2O1 [compound 25, 2-{[4-amino-3-(7-hydroxy-2,2-dimethyl-2,3-dihydro-1-benzofuran-4-yl)-1H-pyrazolo[3,4-d]pyrimidin-1-yl]methyl}-3-(1-phenylcyclopropyl)-5-(thiophen-3-yl)quinazolin-4(3H)-one]
4 | 60 to 80 | 60 to 80 | Cc1ccc(-c2cccc3nc(Cn4nc(-c5ccc(O)c6c5CC(C)(C)O6)c5c(N)ncnc54)n(C4(c5ccccc5)CC4)c(=O)c23)o1 [compound 17, 2-{[4-amino-3-(7-hydroxy-2,2-dimethyl-2,3-dihydro-1-benzofuran-4-yl)-1H-pyrazolo[3,4-d]pyrimidin-1-yl]methyl}-5-(5-methylfuran-2-yl)-3-(1-phenylcyclopropyl)quinazolin-4(3H)-one]
5 | 80 to 100 | 80 to 100 | CC1(C)Cc2c(-c3nn(Cc4nc5cccc(-c6ccoc6)c5c(=O)n4-n4cccc4)c4ncnc(N)c34)ccc(O)c2O1 [compound 23, 2-{[4-amino-3-(7-hydroxy-2,2-dimethyl-2,3-dihydro-1-benzofuran-4-yl)-1H-pyrazolo[3,4-d]pyrimidin-1-yl]methyl}-5-(furan-3-yl)-3-(1H-pyrrol-1-yl)quinazolin-4(3H)-one]
6 | 80 to 100 | 80 to 100 | CCCn1cc(-c2cccc3nc(Cn4nc(-c5ccc(O)c6c5CC(C)(C)O6)c5c(N)ncnc54)n(-n4c(C)ccc4C)c(=O)c23)cn1 [compound 89, 2-{[4-amino-3-(7-hydroxy-2,2-dimethyl-2,3-dihydro-1-benzofuran-4-yl)-1H-pyrazolo[3,4-d]pyrimidin-1-yl]methyl}-3-(2,5-dimethyl-1H-pyrrol-1-yl)-5-(1-propyl-1H-pyrazol-4-yl)quinazolin-4(3H)-one]
7 | 80 to 100 | 80 to 100 | Cc1cccc2nc([C@H](C)n3nc(-c4ccc(O)c5c4CC(C)(C)O5)c4c(N)ncnc43)n(-n3c(C)ccc3C)c(=O)c12 [compound 95, 2-{(1S)-1-[4-amino-3-(7-hydroxy-2,2-dimethyl-2,3-dihydro-1-benzofuran-4-yl)-1H-pyrazolo[3,4-d]pyrimidin-1-yl]ethyl}-3-(2,5-dimethyl-1H-pyrrol-1-yl)-5-methylquinazolin-4(3H)-one]
8 | 80 to 100 | 80 to 100 | CC1(C)Cc2c(-c3nn(Cc4nc5cccc(Br)c5c(=O)n4-n4cccc4)c4ncnc(N)c34)ccc(O)c2O1 [Compound No. 9, 2-{[4-amino-3-(7-hydroxy-2,2-dimethyl-2,3-dihydro-1-benzofuran-4-yl)-1H-pyrazolo[3,4-d]pyrimidin-1-yl]methyl}-5-bromo-3-(1H-pyrrol-1-yl)quinazolin-4(3H)-one]
9 | 80 to 100 | 60 to 80 | CC1(C)Cc2c(-c3nn(Cc4nc5cccc(Cl)c5c(=O)n4-n4cccn4)c4ncnc(N)c34)ccc(O)c2O1 [compound 6, 2-{[4-amino-3-(7-hydroxy-2,2-dimethyl-2,3-dihydro-1-benzofuran-4-yl)-1H-pyrazolo[3,4-d]pyrimidin-1-yl]methyl}-5-chloro-3-(1H-pyrazol-1-yl)quinazolin-4(3H)-one]
10 | 80 to 100 | 60 to 80 | Cn1nccc1-c1cccc2nc(Cn3nc(-c4ccc(O)c5c4CC(C)(C)O5)c4c(N)ncnc43)n(C3(c4ccccc4)CC3)c(=O)c12 [compound 30, 2-{[4-amino-3-(7-hydroxy-2,2-dimethyl-2,3-dihydro-1-benzofuran-4-yl)-1H-pyrazolo[3,4-d]pyrimidin-1-yl]methyl}-5-(1-methyl-1H-pyrazol-5-yl)-3-(1-phenylcyclopropyl)quinazolin-4(3H)-one]
11 | 80 to 100 | 60 to 80 | Cn1nccc1-c1cccc2nc(Cn3nc(-c4ccc(O)c5c4CC(C)(C)O5)c4c(N)ncnc43)n(-n3cccc3)c(=O)c12 [compound 22, 2-{[4-amino-3-(7-hydroxy-2,2-dimethyl-2,3-dihydro-1-benzofuran-4-yl)-1H-pyrazolo[3,4-d]pyrimidin-1-yl]methyl}-5-(1-methyl-1H-pyrazol-5-yl)-3-(1H-pyrrol-1-yl)quinazolin-4(3H)-one]
12 | 80 to 100 | 80 to 100 | CC1(C)Cc2c(-c3nn(Cc4nc5cccc(Cl)c5c(=O)n4-n4cccc4)c4ncnc(N)c34)ccc(O)c2O1 [Compound No. 3, 2-{[4-amino-3-(7-hydroxy-2,2-dimethyl-2,3-dihydro-1-benzofuran-4-yl)-1H-pyrazolo[3,4-d]pyrimidin-1-yl]methyl}-5-chloro-3-(1H-pyrrol-1-yl)quinazolin-4(3H)-one]
13 | 80 to 100 | 80 to 100 | CCn1cc(-c2cccc3nc(Cn4nc(-c5ccc(O)c6c5CCC6)c5c(N)ncnc54)n(-n4c(C)ccc4C)c(=O)c23)cn1 [compound 94, 2-{[4-amino-3-(7-hydroxy-2,3-dihydro-1H-inden-4-yl)-1H-pyrazolo[3,4-d]pyrimidin-1-yl]methyl}-3-(2,5-dimethyl-1H-pyrrol-1-yl)-5-(1-ethyl-1H-pyrazol-4-yl)quinazolin-4(3H)-one]
14 | 80 to 100 | 80 to 100 | CC1(C)Cc2c(-c3nn(Cc4nc5cccc(C#CCN6CCOCC6)c5c(=O)n4C4(c5ccsc5)CC4)c4ncnc(N)c34)ccc(O)c2O1 [compound 72, 2-{[4-amino-3-(7-hydroxy-2,2-dimethyl-2,3-dihydro-1-benzofuran-4-yl)-1H-pyrazolo[3,4-d]pyrimidin-1-yl]methyl}-5-[3-(morpholin-4-yl)prop-1-yn-1-yl]-3-[1-(thiophen-3-yl)cyclopropyl]quinazolin-4(3H)-one]
15 | 80 to 100 | 80 to 100 | CC1(C)Cc2c(-c3nn(Cc4nc5cccc(C#CC6CC6)c5c(=O)n4C4(c5ccsc5)CC4)c4ncnc(N)c34)ccc(O)c2O1 [compound 76, 2-{[4-amino-3-(7-hydroxy-2,2-dimethyl-2,3-dihydro-1-benzofuran-4-yl)-1H-pyrazolo[3,4-d]pyrimidin-1-yl]methyl}-5-(cyclopropylethynyl)-3-[1-(thiophen-3-yl)cyclopropyl]quinazolin-4(3H)-one]
16 | 80 to 100 | 60 to 80 | CC1(C)Cc2c(-c3nn(Cc4nc5cccc(-c6ccncc6)c5c(=O)n4-n4cccc4)c4ncnc(N)c34)ccc(O)c2O1 [compound 18, 2-{[4-amino-3-(7-hydroxy-2,2-dimethyl-2,3-dihydro-1-benzofuran-4-yl)-1H-pyrazolo[3,4-d]pyrimidin-1-yl]methyl}-5-(pyridin-4-yl)-3-(1H-pyrrol-1-yl)quinazolin-4(3H)-one]
17 | 80 to 100 | 40 to 60 | CC1(C)Cc2c(-c3nn(Cc4nc5cccc(Cl)c5c(=O)n4-n4cc5ccccc5n4)c4ncnc(N)c34)ccc(O)c2O1 [Compound No. 4, 2-{[4-amino-3-(7-hydroxy-2,2-dimethyl-2,3-dihydro-1-benzofuran-4-yl)-1H-pyrazolo[3,4-d]pyrimidin-1-yl]methyl}-5-chloro-3-(2H-indazol-2-yl)quinazolin-4(3H)-one]
18 | 80 to 100 | 80 to 100 | CC1(C)Cc2c(-c3nn(Cc4nc5cccc(C#CCO)c5c(=O)n4C4(c5ccccc5)CC4)c4ncnc(N)c34)ccc(O)c2O1 [compound 24, 2-{[4-amino-3-(7-hydroxy-2,2-dimethyl-2,3-dihydro-1-benzofuran-4-yl)-1H-pyrazolo[3,4-d]pyrimidin-1-yl]methyl}-5-(3-hydroxyprop-1-yn-1-yl)-3-(1-phenylcyclopropyl)quinazolin-4(3H)-one]
19 | 80 to 100 | 80 to 100 | CC(=O)NCC#Cc1cccc2nc(Cn3nc(-c4ccc(O)c5c4CC(C)(C)O5)c4c(N)ncnc43)n(-n3cccc3)c(=O)c12 [compound 28, N-{3-[2-{[4-amino-3-(7-hydroxy-2,2-dimethyl-2,3-dihydro-1-benzofuran-4-yl)-1H-pyrazolo[3,4-d]pyrimidin-1-yl]methyl}-4-oxo-3-(1H-pyrrol-1-yl)-3,4-dihydroquinazolin-5-yl]prop-2-yn-1-yl}acetamide]
20 | 80 to 100 | 60 to 80 | Cc1cccc2nc(Cn3nc(-c4ccc(O)c5c4CC(C)(C)O5)c4c(N)ncnc43)n(C3(c4ccccc4)CC3)c(=O)c12 [Compound No. 8, 2-{[4-amino-3-(7-hydroxy-2,2-dimethyl-2,3-dihydro-1-benzofuran-4-yl)-1H-pyrazolo[3,4-d]pyrimidin-1-yl]methyl}-5-methyl-3-(1-phenylcyclopropyl)quinazolin-4(3H)-one]

From patent US20190127381A1, “SUBSTITUTED FUSED PYRIMIDINONE COMPOUNDS” (TORRENT PHARMACEUTICALS LIMITED, priority 2016, published 2019)
